The assay concerns the target human F508del-CFTR (Homo sapiens, UniProt P13569, DEL508-508). The assay can be described thus: F508del-CFTR cell surface expression (corrector activity), DiscoveRx ß-galactosidase complementation chemiluminescence assay in recombinant U2OS cell line.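 For all read-outs here: U2OS cells co-expressing ProLink-tagged F508del-CFTR and a membrane-anchored enzyme acceptor, where more surface CFTR restores β-galactosidase activity measured by chemiluminescence.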 The conditions noted are these: U2OS cell line, 16h compound incubation; for EC50: EC50, F508del-CFTR cell surface expression, geomean values; for Emax: U2OS, in relation to the Emax of the corrector lumacaftor (=100%), arithmetic mean values.

Molecules are shown by their SMILES.

Data on 15 molecules can be found in patent publication US20240208992A1, “MACROCYCLES AS CFTR MODULATORS” (Idorsia Pharmaceuticals Ltd, priority 2021, published 2024).

As usually defined, the EC50 is the concentration giving half of the maximal effect. By Emax is commonly meant the maximal effect, on the per cent scale that the assay sets.

human F508del-CFTR, sequence (P13569 with tags, fused parts or gaps DEL508-508): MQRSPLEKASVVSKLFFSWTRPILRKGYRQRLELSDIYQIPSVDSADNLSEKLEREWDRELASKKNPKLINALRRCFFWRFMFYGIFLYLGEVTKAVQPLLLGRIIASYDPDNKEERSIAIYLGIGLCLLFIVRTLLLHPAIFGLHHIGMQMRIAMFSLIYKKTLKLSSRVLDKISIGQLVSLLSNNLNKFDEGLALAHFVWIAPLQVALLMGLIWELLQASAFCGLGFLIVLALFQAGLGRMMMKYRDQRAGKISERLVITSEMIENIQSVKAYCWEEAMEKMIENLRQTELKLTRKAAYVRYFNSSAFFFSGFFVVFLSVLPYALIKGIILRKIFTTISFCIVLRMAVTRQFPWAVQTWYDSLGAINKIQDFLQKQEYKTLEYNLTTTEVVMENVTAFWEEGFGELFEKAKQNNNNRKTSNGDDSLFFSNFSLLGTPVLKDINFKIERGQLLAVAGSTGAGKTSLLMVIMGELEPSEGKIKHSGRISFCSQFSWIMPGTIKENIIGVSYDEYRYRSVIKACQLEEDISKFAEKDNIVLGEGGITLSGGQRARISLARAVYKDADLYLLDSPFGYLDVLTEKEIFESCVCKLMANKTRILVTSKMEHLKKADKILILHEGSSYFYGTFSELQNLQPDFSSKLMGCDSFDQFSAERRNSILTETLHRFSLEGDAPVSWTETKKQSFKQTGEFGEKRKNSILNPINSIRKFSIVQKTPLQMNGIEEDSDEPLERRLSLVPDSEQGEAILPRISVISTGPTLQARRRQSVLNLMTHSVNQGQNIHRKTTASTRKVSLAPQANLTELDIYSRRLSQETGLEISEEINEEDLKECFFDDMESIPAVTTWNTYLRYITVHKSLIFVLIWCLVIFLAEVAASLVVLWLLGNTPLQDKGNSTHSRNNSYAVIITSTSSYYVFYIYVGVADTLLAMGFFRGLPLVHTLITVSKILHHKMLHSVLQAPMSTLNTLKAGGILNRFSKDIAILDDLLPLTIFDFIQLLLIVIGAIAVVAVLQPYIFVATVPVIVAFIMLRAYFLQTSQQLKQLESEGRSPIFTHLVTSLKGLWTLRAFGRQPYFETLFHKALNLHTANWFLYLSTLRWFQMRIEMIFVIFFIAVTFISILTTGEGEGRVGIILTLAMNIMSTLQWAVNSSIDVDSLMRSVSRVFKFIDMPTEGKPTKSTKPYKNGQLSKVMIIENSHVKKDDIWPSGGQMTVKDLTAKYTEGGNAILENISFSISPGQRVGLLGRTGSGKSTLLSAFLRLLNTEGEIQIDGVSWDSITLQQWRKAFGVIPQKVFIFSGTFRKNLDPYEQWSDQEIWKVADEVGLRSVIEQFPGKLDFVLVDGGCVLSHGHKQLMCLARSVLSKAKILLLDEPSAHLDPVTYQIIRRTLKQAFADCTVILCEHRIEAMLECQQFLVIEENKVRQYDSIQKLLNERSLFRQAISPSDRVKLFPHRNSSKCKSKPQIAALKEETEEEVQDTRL

Turning to `CC(C)C[C@H]1C(=O)N2CCOC[C@@H]2C(=O)N[C@H](Cc2ccccc2)COc2cnc3ccccc3c2C(=O)N[C@H](C(=O)NCCc2ccc3c(c2)OCC3)CC(=O)N1C` [Example 54, (9S,13S,19aR,22R)-22-benzyl-N-(2-(2,3-dihydrobenzofuran-6-yl)ethyl)-13-isobutyl-12-methyl-7,11,14,20-tetraoxo-7,8,9,10,11,12,13,14,16,17,19,19a,20,21,22,23-hexadecahydro-[1,4]oxazino[3′,4′:6,7][1]oxa[4,7,10,14]tetraazacycloheptadecino[17,16-c]quinoline-9-carboxamide], the EC50 was determined as 558 nM and the Emax turned out to be 373%.

Consider `CC(C)C[C@H]1C(=O)N2CCOC[C@@H]2C(=O)N[C@H](Cc2ccccc2)COc2cnc3ccccc3c2C(=O)N[C@H](C(=O)NCCc2ccc(-n3nccn3)cc2)CC(=O)N1C` [Example 55, (9S,13S,19aR,22R)-N-(4-(2H-1,2,3-triazol-2-yl)phenethyl)-22-benzyl-13-isobutyl-12-methyl-7,11,14,20-tetraoxo-7,8,9,10,11,12,13,14,16,17,19,19a,20,21,22,23-hexadecahydro-[1,4]oxazino[3′,4′:6,7][1]oxa[4,7,10,14]tetraazacycloheptadecino[17,16-c]quinoline-9-carboxamide], for which the EC50 is 945 nM and the Emax is 245%.

On to `CC(C)C[C@H]1C(=O)N2CCOC[C@@H]2C(=O)N[C@H](Cc2ccccc2)COc2cnc3ccccc3c2C(=O)N[C@H](C(=O)NCCc2cccc(-n3nccn3)c2)CC(=O)N1C` [Example 56, (9S,13S,19aR,22R)-N-(3-(2H-1,2,3-triazol-2-yl)phenethyl)-22-benzyl-13-isobutyl-12-methyl-7,11,14,20-tetraoxo-7,8,9,10,11,12,13,14,16,17,19,19a,20,21,22,23-hexadecahydro-[1,4]oxazino[3′,4′:6,7][1]oxa[4,7,10,14]tetraazacycloheptadecino[17,16-c]quinoline-9-carboxamide], for which the EC50 came out at 764 nM and the Emax turned out to be 256%.

For `COc1cc(CCNC(=O)[C@@H]2CC(=O)N(C)[C@@H](CC(C)C)C(=O)N3CCOC[C@@H]3C(=O)N[C@H](Cc3ccccc3)COc3cnc4ccccc4c3C(=O)N2)cc(OC)c1` [Example 57, (9S,13S,19aR,22R)-22-benzyl-N-(3,5-dimethoxyphenethyl)-13-isobutyl-12-methyl-7,11,14,20-tetraoxo-7,8,9,10,11,12,13,14,16,17,19,19a,20,21,22,23-hexadecahydro-[1,4]oxazino[3′,4′:6,7][1]oxa[4,7,10,14]tetraazacycloheptadecino[17,16-c]quinoline-9-carboxamide], the EC50 came out at 414 nM and the Emax was 315%.

With `CC(C)C[C@H]1C(=O)N2CCOC[C@@H]2C(=O)N[C@H](Cc2ccccc2)COc2cnc3ccccc3c2C(=O)N[C@H](C(=O)NCCc2ccccc2)CC(=O)N1C` [Example 58, (9S,13S,19aR,22R)-22-benzyl-13-isobutyl-12-methyl-7,11,14,20-tetraoxo-N-phenethyl-7,8,9,10,11,12,13,14,16,17,19,19a,20,21,22,23-hexadecahydro-[1,4]oxazino[3′,4′:6,7][1]oxa[4,7,10,14]tetraazacycloheptadecino[17,16-c]quinoline-9-carboxamide], the EC50 was 759 nM and the Emax was 175%.

Take `COc1ccc(CCNC(=O)[C@@H]2CC(=O)N(C)[C@@H](CC(C)C)C(=O)N3CCOC[C@@H]3C(=O)N[C@H](Cc3ccccc3)COc3cnc4ccccc4c3C(=O)N2)c(F)c1` [Example 59, (9S,13S,19aR,22R)-22-benzyl-N-(2-fluoro-4-methoxyphenethyl)-13-isobutyl-12-methyl-7,11,14,20-tetraoxo-7,8,9,10,11,12,13,14,16,17,19,19a,20,21,22,23-hexadecahydro-[1,4]oxazino[3′,4′:6,7][1]oxa[4,7,10,14]tetraazacycloheptadecino[17,16-c]quinoline-9-carboxamide]: the EC50 worked out at 772 nM and the Emax was found to be 237%.

In the case of `Cc1ccc(CCNC(=O)[C@@H]2CC(=O)N(C)[C@@H](CC(C)C)C(=O)N3CCOC[C@@H]3C(=O)N[C@H](Cc3ccccc3)COc3cnc4ccccc4c3C(=O)N2)cc1` [Example 60, (9S,13S,19aR,22R)-22-benzyl-13-isobutyl-12-methyl-N-(4-methylphenethyl)-7,11,14,20-tetraoxo-7,8,9,10,11,12,13,14,16,17,19,19a,20,21,22,23-hexadecahydro-[1,4]oxazino[3′,4′:6,7][1]oxa[4,7,10,14]tetraazacycloheptadecino[17,16-c]quinoline-9-carboxamide], the EC50 turned out to be 662 nM and the Emax was 228%.

On to `Cc1ccc(CCNC(=O)[C@@H]2CC(=O)N(C)[C@@H](CC(C)C)C(=O)N3CCOC[C@@H]3C(=O)N[C@H](Cc3ccccc3)COc3cnc4ccccc4c3C(=O)N2)cc1C` [Example 61, (9S,13S,19aR,22R)-22-benzyl-N-(3,4-dimethylphenethyl)-13-isobutyl-12-methyl-7,11,14,20-tetraoxo-7,8,9,10,11,12,13,14,16,17,19,19a,20,21,22,23-hexadecahydro-[1,4]oxazino[3′,4′:6,7][1]oxa[4,7,10,14]tetraazacycloheptadecino[17,16-c]quinoline-9-carboxamide], for which the EC50 is 421 nM and the Emax was 202%.

As to `Cc1cccc(CCNC(=O)[C@@H]2CC(=O)N(C)[C@@H](CC(C)C)C(=O)N3CCOC[C@@H]3C(=O)N[C@H](Cc3ccccc3)COc3cnc4ccccc4c3C(=O)N2)c1` [Example 62, (9S,13S,19aR,22R)-22-benzyl-13-isobutyl-12-methyl-N-(3-methylphenethyl)-7,11,14,20-tetraoxo-7,8,9,10,11,12,13,14,16,17,19,19a,20,21,22,23-hexadecahydro-[1,4]oxazino[3′,4′:6,7][1]oxa[4,7,10,14]tetraazacycloheptadecino[17,16-c]quinoline-9-carboxamide], the EC50 stood at 809 nM and the Emax was found to be 222%.

Regarding `Cc1ccc(CCNC(=O)[C@@H]2CC(=O)N(C)[C@@H](CC(C)C)C(=O)N3CCOC[C@@H]3C(=O)N[C@H](Cc3ccccc3)COc3cnc4ccccc4c3C(=O)N2)c(C)c1` [Example 63, (9S,13S,19aR,22R)-22-benzyl-N-(2,4-dimethylphenethyl)-13-isobutyl-12-methyl-7,11,14,20-tetraoxo-7,8,9,10,11,12,13,14,16,17,19,19a,20,21,22,23-hexadecahydro-[1,4]oxazino[3′,4′:6,7][1]oxa[4,7,10,14]tetraazacycloheptadecino[17,16-c]quinoline-9-carboxamide], the EC50 was found to be 418 nM and the maximal response (Emax) is 250%.

Turning to `Cc1ccccc1CCNC(=O)[C@@H]1CC(=O)N(C)[C@@H](CC(C)C)C(=O)N2CCOC[C@@H]2C(=O)N[C@H](Cc2ccccc2)COc2cnc3ccccc3c2C(=O)N1` [Example 64, (9S,13S,19aR,22R)-22-benzyl-13-isobutyl-12-methyl-N-(2-methylphenethyl)-7,11,14,20-tetraoxo-7,8,9,10,11,12,13,14,16,17,19,19a,20,21,22,23-hexadecahydro-[1,4]oxazino[3′,4′:6,7][1]oxa[4,7,10,14]tetraazacycloheptadecino[17,16-c]quinoline-9-carboxamide], the EC50 was found to be 441 nM and the Emax turned out to be 143%.

Turning to `COc1cccc(CCNC(=O)[C@@H]2CC(=O)N(C)[C@@H](CC(C)C)C(=O)N3CCOC[C@@H]3C(=O)N[C@H](Cc3ccccc3)COc3cnc4ccccc4c3C(=O)N2)c1OC` [Example 65, (9S,13S,19aR,22R)-22-benzyl-N-(2,3-dimethoxyphenethyl)-13-isobutyl-12-methyl-7,11,14,20-tetraoxo-7,8,9,10,11,12,13,14,16,17,19,19a,20,21,22,23-hexadecahydro-[1,4]oxazino[3′,4′:6,7][1]oxa[4,7,10,14]tetraazacycloheptadecino[17,16-c]quinoline-9-carboxamide], the EC50 turned out to be 647 nM and the maximal response (Emax) amounted to 282%.

For `CC(C)C[C@H]1C(=O)N2CCOC[C@@H]2C(=O)N[C@H](Cc2ccccc2)COc2cnc3ccccc3c2C(=O)N[C@H](C(=O)NCCc2cccc(F)c2)CC(=O)N1C` [Example 66, (9S,13S,19aR,22R)-22-benzyl-N-(3-fluorophenethyl)-13-isobutyl-12-methyl-7,11,14,20-tetraoxo-7,8,9,10,11,12,13,14,16,17,19,19a,20,21,22,23-hexadecahydro-[1,4]oxazino[3′,4′:6,7][1]oxa[4,7,10,14]tetraazacycloheptadecino[17,16-c]quinoline-9-carboxamide], the half-maximal effective concentration (EC50) was 587 nM and the maximal effect (Emax) came out at 169%.

On to `CC(C)C[C@H]1C(=O)N2CCOC[C@@H]2C(=O)N[C@H](Cc2ccccc2)COc2cnc3ccccc3c2C(=O)N[C@H](C(=O)NCCc2ccc(F)cc2)CC(=O)N1C` [Example 67, (9S,13S,19aR,22R)-22-benzyl-N-(4-fluorophenethyl)-13-isobutyl-12-methyl-7,11,14,20-tetraoxo-7,8,9,10,11,12,13,14,16,17,19,19a,20,21,22,23-hexadecahydro-[1,4]oxazino[3′,4′:6,7][1]oxa[4,7,10,14]tetraazacycloheptadecino[17,16-c]quinoline-9-carboxamide], for which the EC50 was determined as 615 nM and the Emax was 236%.

Consider `CC(C)C[C@H]1C(=O)N2CCOC[C@@H]2C(=O)N[C@H](Cc2ccccc2)COc2cnc3ccccc3c2C(=O)N[C@H](C(=O)NCCc2c(F)cccc2F)CC(=O)N1C` [Example 68, (9S,13S,19aR,22R)-22-benzyl-N-(2,6-difluorophenethyl)-13-isobutyl-12-methyl-7,11,14,20-tetraoxo-7,8,9,10,11,12,13,14,16,17,19,19a,20,21,22,23-hexadecahydro-[1,4]oxazino[3′,4′:6,7][1]oxa[4,7,10,14]tetraazacycloheptadecino[17,16-c]quinoline-9-carboxamide], for which the EC50 came to 448 nM and the Emax was found to be 331%.
